From article PMC2651799 (Nucleic Acids Research, 2009)

Molecular target: T1, RmtA (Pseudomonas aeruginosa, UniProt Q8GRA1)
T1 sequence (Q8GRA1 1-251): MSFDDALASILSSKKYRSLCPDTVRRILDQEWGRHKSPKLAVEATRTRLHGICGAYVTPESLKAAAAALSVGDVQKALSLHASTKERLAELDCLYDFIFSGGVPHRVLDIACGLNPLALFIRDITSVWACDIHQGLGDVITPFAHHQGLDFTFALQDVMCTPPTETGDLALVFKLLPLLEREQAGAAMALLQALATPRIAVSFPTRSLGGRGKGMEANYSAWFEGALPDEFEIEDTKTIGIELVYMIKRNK
Format: biochemical

Row | Structure (SMILES) | IC50 [µM]
1 | Nc1ncnc2c1ncn2[C@@H]1O[C@H](C[C@@H](N)CC[C@H](N)C(=O)O)[C@@H](O)[C@H]1O [sinefungin] | 19.95 ± 0.09
2 | Nc1ncnc2c1ncn2[C@@H]1O[C@H](CSCC[C@H](N)C(=O)O)[C@@H](O)[C@H]1O [SAH] | 9.33 ± 0.07
